Assay results as given in ChEMBL document CHEMBL4507289, “Data for DCP probe GSM1” (2021).
Calls of active or inactive are those of the source. No cut-off for these calls is given here.

Assays:
[1] = target: 5-hydroxytryptamine receptor 3A (Homo sapiens) (UniProt P46098); settings: Compound concentration 10.0 uM
[2] = target: Glycogen synthase kinase-3 beta (Homo sapiens) (UniProt P49841); settings: Compound concentration 1000.0 nM
[3] = target: Calcium/calmodulin-dependent protein kinase type 1G (Homo sapiens) (UniProt Q96NX5); settings: Compound concentration 1000.0 nM
Calcium/calmodulin-dependent protein kinase type 1G (Homo sapiens), sequence (Q96NX5 whole entry): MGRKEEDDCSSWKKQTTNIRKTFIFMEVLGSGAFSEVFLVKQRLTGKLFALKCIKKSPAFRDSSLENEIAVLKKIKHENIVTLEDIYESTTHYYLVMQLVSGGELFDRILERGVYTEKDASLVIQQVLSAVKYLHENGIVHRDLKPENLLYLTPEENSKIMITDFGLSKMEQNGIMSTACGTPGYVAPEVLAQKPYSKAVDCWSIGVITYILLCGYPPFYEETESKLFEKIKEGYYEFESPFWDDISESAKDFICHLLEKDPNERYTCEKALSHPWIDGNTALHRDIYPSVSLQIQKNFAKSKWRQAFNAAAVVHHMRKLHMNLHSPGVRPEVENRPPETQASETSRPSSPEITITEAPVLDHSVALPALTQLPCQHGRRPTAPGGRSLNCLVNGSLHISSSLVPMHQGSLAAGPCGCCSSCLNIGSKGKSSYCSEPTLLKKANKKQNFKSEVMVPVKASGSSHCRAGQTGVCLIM

[4] = GPCRScan assay: inhibition of GABA/PBR; design: species or system Rattus norvegicus; radioligand conc. used [nm] 0.3 – 2.0, parental cells brain tissue
[5] = target: Focal adhesion kinase 1 (Homo sapiens) (UniProt Q05397); settings: Compound concentration 1000.0 nM
[6] = target: RAC-gamma serine/threonine-protein kinase (Homo sapiens) (UniProt Q9Y243); settings: Compound concentration 1000.0 nM
[7] = target: Serine/threonine-protein kinase PAK 1 (Homo sapiens) (UniProt Q13153); settings: Compound concentration 1000.0 nM
Serine/threonine-protein kinase PAK 1 (Homo sapiens), sequence (Q13153 whole entry): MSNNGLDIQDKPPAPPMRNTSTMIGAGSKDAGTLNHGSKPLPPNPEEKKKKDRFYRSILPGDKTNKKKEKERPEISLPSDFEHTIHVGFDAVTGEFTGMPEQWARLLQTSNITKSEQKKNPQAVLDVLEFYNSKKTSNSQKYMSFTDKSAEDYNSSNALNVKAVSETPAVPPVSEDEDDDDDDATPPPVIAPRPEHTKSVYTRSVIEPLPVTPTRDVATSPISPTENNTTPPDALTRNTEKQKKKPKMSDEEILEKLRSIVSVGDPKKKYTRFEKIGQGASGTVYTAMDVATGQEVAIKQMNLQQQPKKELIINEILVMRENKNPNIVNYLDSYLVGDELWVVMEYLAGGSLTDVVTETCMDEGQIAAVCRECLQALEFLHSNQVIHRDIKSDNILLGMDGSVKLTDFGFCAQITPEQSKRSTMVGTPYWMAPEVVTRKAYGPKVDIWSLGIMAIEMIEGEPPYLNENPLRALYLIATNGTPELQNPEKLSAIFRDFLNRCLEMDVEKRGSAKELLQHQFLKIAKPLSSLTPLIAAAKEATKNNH

D(4) dopamine receptor = D(4) dopamine receptor (Homo sapiens, UniProt P21917); test: GPCRScan assay: inhibition of D4; design: radioligand conc. used [nm] 0.6 – 1.7, parental cells Stable HEK
[8] = target: 5-hydroxytryptamine receptor 1D (Homo sapiens) (UniProt P28221); settings: Compound concentration 10.0 uM
[9] = target: Serine/threonine-protein kinase 24 (Homo sapiens) (UniProt Q9Y6E0); settings: Compound concentration 1000.0 nM
Serine/threonine-protein kinase 24 (Homo sapiens), sequence (Q9Y6E0 whole entry, looked up): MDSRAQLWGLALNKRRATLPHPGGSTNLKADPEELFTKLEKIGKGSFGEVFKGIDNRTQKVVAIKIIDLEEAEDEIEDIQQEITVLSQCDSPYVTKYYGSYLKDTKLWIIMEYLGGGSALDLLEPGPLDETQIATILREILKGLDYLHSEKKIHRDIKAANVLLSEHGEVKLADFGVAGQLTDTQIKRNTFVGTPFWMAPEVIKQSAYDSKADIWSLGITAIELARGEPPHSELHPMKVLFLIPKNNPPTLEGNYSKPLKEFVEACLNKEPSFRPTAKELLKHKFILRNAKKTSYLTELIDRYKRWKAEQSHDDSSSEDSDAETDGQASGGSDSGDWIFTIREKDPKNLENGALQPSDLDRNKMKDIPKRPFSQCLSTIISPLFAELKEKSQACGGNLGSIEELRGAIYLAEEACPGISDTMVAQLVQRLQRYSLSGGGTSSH

[10] = target: Casein kinase II subunit alpha (Homo sapiens) (UniProt P68400); settings: Compound concentration 1000.0 nM
Casein kinase II subunit alpha (Homo sapiens), sequence (P68400 whole entry, looked up): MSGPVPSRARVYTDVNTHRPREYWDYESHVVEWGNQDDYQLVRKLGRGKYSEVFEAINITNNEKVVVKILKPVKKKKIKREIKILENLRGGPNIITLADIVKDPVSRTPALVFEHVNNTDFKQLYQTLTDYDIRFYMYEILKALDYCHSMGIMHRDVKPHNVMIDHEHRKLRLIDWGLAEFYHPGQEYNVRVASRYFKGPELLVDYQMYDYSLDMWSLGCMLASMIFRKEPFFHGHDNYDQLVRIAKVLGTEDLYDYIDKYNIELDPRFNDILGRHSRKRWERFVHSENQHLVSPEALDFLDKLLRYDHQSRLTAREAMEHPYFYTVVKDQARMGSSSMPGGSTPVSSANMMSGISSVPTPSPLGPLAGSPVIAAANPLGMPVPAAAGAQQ

[11] = target: Calcium-dependent protein kinase 1 (Plasmodium falciparum) (UniProt P62344); settings: Compound concentration 1000.0 nM
[12] = target: Alpha-1B adrenergic receptor (Homo sapiens, UniProt P35368); test: GPCRScan assay: inhibition of Alpha1B; design: radioligand conc. used [nm] 0.3 – 1.0, parental cells stable HEK
[13] = target: MAP kinase-activated protein kinase 5 (Homo sapiens) (UniProt Q8IW41); settings: Compound concentration 1000.0 nM
[14] = target: Tyrosine-protein kinase HCK (Homo sapiens) (UniProt P08631); settings: Compound concentration 1000.0 nM
[15] = target: Macrophage colony-stimulating factor 1 receptor (Homo sapiens) (UniProt P07333); settings: Compound concentration 1000.0 nM
[16] = target: Mitogen-activated protein kinase 12 (Homo sapiens) (UniProt P53778); settings: Compound concentration 1000.0 nM
[17] = target: Receptor-type tyrosine-protein kinase FLT3 (Homo sapiens) (UniProt P36888); settings: Compound concentration 1000.0 nM
Receptor-type tyrosine-protein kinase FLT3 (Homo sapiens), sequence (P36888 whole entry): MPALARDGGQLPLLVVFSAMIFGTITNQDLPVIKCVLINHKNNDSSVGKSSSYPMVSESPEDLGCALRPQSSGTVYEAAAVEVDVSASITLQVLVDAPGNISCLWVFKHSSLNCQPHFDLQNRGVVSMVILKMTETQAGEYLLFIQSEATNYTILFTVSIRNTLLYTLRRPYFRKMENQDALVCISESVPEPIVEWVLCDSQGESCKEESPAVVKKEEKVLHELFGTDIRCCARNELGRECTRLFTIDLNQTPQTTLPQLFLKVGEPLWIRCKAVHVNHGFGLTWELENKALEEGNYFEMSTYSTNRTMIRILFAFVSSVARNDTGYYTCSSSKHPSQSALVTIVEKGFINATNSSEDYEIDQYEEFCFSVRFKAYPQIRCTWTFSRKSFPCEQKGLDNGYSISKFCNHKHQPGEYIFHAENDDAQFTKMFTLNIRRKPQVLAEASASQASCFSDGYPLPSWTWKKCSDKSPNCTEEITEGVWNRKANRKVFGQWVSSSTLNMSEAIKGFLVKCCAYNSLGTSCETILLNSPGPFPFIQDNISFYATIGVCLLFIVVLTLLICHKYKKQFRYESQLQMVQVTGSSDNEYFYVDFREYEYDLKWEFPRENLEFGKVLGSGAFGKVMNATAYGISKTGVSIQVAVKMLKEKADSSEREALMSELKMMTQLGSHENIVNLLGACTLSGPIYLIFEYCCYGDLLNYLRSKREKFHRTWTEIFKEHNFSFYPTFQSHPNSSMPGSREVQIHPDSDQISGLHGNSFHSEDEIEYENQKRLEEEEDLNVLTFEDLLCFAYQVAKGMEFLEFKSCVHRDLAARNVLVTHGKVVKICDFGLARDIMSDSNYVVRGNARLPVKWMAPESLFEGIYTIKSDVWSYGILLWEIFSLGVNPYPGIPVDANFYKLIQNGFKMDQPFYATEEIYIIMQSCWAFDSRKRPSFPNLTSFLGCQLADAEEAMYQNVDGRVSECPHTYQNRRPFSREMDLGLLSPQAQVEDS

[18] = target: Serine/threonine-protein kinase NIM1 (Homo sapiens) (UniProt Q8IY84); settings: Compound concentration 1000.0 nM
Serine/threonine-protein kinase NIM1 (Homo sapiens), sequence (Q8IY84 whole entry): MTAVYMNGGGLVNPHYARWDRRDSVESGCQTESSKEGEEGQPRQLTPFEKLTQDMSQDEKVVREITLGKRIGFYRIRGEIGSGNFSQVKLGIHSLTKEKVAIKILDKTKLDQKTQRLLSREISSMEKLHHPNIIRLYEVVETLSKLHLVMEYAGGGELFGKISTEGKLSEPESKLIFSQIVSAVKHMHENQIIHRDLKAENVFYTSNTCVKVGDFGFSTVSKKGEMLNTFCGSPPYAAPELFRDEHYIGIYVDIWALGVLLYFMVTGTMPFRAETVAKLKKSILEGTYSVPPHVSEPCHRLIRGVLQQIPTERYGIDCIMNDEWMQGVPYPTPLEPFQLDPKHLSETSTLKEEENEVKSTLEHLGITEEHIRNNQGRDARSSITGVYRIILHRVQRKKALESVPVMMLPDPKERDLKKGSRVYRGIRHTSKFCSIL

[19] = target: Alpha-1A adrenergic receptor (Homo sapiens, UniProt P35348); test: GPCRScan assay: inhibition of Alpha1A; design: radioligand conc. used [nm] 0.2 - 1.0, parental cells stable HEK
[20] = target: Mitogen-activated protein kinase 14 (Homo sapiens) (UniProt Q16539); settings: Compound concentration 1000.0 nM
Mitogen-activated protein kinase 14 (Homo sapiens), sequence (Q16539 whole entry): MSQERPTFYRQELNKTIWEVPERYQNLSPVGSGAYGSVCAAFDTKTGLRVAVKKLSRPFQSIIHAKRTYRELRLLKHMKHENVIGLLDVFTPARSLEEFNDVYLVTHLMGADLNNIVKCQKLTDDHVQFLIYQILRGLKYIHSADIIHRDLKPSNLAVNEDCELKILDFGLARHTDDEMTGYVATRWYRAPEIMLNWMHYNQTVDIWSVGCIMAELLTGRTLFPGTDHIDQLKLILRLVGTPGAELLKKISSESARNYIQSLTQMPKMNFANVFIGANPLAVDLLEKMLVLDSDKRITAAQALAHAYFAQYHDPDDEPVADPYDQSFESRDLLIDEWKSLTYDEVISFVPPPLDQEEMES

[21] = target: Muscarinic acetylcholine receptor M1 (Homo sapiens) (UniProt P11229); settings: Compound concentration 10.0 uM
Histamine H2 receptor = Histamine H2 receptor (Homo sapiens, UniProt P25021); test: GPCRScan assay: inhibition of H2; design: radioligand conc. used [nm] 0.02 – 0.05, parental cells Stable HEK
[22] = target: T1, Sodium-dependent dopamine transporter (Homo sapiens, UniProt Q01959); test: GPCRScan assay: inhibition of DAT; design: radioligand conc. used [nm] 3.6 – 16.0, parental cells stable HEK
T1 sequence (Q01959 whole entry): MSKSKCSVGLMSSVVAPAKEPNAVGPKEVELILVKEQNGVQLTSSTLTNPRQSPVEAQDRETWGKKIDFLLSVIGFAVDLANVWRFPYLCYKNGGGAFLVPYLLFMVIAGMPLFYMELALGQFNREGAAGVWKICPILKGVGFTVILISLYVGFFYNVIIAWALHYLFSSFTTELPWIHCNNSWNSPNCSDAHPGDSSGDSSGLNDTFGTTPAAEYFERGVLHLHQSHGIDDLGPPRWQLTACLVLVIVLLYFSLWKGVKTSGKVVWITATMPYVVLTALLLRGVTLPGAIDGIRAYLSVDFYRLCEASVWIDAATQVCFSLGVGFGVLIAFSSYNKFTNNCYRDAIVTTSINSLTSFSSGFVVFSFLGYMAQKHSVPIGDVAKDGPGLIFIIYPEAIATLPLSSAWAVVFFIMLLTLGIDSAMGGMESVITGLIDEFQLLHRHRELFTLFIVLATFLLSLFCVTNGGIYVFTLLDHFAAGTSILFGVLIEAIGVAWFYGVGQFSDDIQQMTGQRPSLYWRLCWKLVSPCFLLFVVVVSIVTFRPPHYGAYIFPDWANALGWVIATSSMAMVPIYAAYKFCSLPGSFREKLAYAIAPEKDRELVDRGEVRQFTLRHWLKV

[23] = target: Alpha-1A adrenergic receptor (Homo sapiens) (UniProt P35348); settings: Compound concentration 10.0 uM
[24] = target: Alpha-1D adrenergic receptor (Homo sapiens) (UniProt P25100); settings: Compound concentration 10.0 uM
[25] = target: Muscarinic acetylcholine receptor M2 (Homo sapiens) (UniProt P08172); settings: Compound concentration 10.0 uM
[26] = target: Alpha-1B adrenergic receptor (Homo sapiens) (UniProt P35368); settings: Compound concentration 10.0 uM
[27] = target: Beta-2 adrenergic receptor (Homo sapiens) (UniProt P07550); settings: Compound concentration 10.0 uM
[28] = target: 5-hydroxytryptamine receptor 1E (Homo sapiens) (UniProt P28566); settings: Compound concentration 10.0 uM
[29] = target: Sodium-dependent noradrenaline transporter (Homo sapiens, UniProt P23975); test: GPCRScan assay: inhibition of NET; design: radioligand conc. used [nm] 1.3 – 5.0, parental cells stable HEK
[30] = target: T1, Sodium-dependent dopamine transporter; test: Dopamine-uptake assay
[31] = target: Sodium-dependent serotonin transporter (Homo sapiens, UniProt P31645); test: Serotonin-uptake assay
[32] = target: Beta-3 adrenergic receptor (Homo sapiens) (UniProt P13945); settings: Compound concentration 10.0 uM

5-hydroxytryptamine receptor 3A (Homo sapiens), sequence (P46098 whole entry): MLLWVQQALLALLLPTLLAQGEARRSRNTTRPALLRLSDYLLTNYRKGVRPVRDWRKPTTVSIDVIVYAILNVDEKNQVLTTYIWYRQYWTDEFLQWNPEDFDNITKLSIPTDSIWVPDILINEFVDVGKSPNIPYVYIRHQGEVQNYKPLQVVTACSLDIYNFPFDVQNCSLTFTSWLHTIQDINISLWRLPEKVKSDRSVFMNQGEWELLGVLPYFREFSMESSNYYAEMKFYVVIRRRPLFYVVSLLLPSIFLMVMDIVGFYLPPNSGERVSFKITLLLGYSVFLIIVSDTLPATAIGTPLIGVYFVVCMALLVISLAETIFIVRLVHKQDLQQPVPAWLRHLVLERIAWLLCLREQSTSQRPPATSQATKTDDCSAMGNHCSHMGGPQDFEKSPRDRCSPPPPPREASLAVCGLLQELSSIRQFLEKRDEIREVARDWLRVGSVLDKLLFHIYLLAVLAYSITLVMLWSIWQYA

Compound	inhibition [1]	residual activity [2]	residual activity [3]	residual activity [5]	residual activity [6]	residual activity [7]	residual activity [9]	residual activity [10]	residual activity [11]	residual activity [13]	residual activity [14]	residual activity [15]	residual activity [16]	residual activity [17]	residual activity [18]	residual activity [20]	other results
COc1cc(-c2cn([C@H]3CCc4ccccc4N(CC(F)(F)F)C3=O)nn2)ccc1-n1ccc(C)n1	-9.73%	85%	100%	100%	89%	100%	97%	81%	99%	91%	100%	93%	100%	89%	80%	94%	Ki [4]: 5070 nM; pKi [4]: 5.36; Ki (D(4) dopamine receptor): 4950 nM; inhibition [8]: 11.3%; Ki [12]: 10000 nM; Ki [19]: 1390 nM
COc1cc(-c2cn([C@H]3CCc4c(F)cccc4N(CC(F)(F)F)C3=O)nn2)ccc1-n1cnc(C)c1	-8%	100%	100%	100%	100%	93%	100%	100%	100%	100%	100%	100%	79%	100%	78%	100%	inhibition [21]: 8.88%; Ki (Histamine H2 receptor): 975 nM; Ki ([22]; read-out: Ki): 191 nM; Ki ([22]; read-out: pKi (converted)): 200 nM; inhibition [23]: 14.1%; inhibition [24]: 2.11%; inhibition [25]: 14.4%; inhibition [26]: 19.9%; inhibition [27]: -5.61%; inhibition [28]: -8.76%; Ki [29]: 808 nM; IC50 [30]: 536 nM (active); IC50 [31]: 13 nM (active); inhibition [32]: 15.8%
